From the OPERA property sets (Mansouri et al. 2018) come the findings set out here.

On to `CCCNc1ccc(C(=O)OCCN(C)C)cc1`, for which the logP amounted to 3.15.

Turning to `CC(=O)Nc1c(C)c(C)c(O)c(C)c1C`, the logP stood at 0.95.

The molecule `NC1CC2CC1c1cc(C(F)(F)F)ccc12` (centres undefined) registered a logP of 3.19.

With `NNC(=O)NN=Cc1ccccc1`, the logP came out at 0.81.

Molecule `CCCCCCCCCCCC[n+]1ccccc1C.[I-]` gave a logP of 1.32.

With `COc1c(O)cc(Cc2cnc(N)nc2N)cc1O`, the logP was -0.04.

With `CN(CCO)N=Nc1ccccc1`, the lipophilicity (logP) came out at 1.71.

`Cc1ccc(OC(=O)CNC(=O)c2ccccc2)cc1`: the lipophilicity (logP) was determined as 2.83.

For the molecule `Cc1nc(-c2ccccn2)no1`, the logP was found to be 0.79.

Molecule `CNc1ncnc2sccc12` gave a logP of 1.43.

The molecule `Nc1nc(N)nc(-c2cc(Cl)ccc2Br)n1` gave a log partition coefficient (logP) of 1.85.

In turn, `CNC(=O)Oc1cc(C)cc(C(C)(C)C)c1` displayed a lipophilicity (logP) of 3.35.

Turning to `Clc1cccc(NC2=NCCN2)c1Cl`, the logP stood at 1.94.

`COCCOc1c(OC)cc(Cc2cnc(N)nc2N)cc1OC`: the log partition coefficient (logP) was 0.56.

On to `COc1cc(C)n(-c2cc(C)nc(C)n2)n1`, for which the logP came out at 2.6.

Take `COc1c(N(C)C)cc(Cc2cnc(N)nc2N)cc1N(C)C(C)=O`: the logP amounted to 1.01.

The molecule `O=C(c1ccncc1)c1ccc([N+](=O)[O-])cc1` registered a logP of 1.76.

Consider `CC(C)(C)CC1=Nc2ccc(Cl)cc2S(=O)(=O)N1`, for which the logP was found to be 2.71.

`COc1ccc2c(c1)N=C(C)NS2(=O)=O` gave a logP of 0.56.

As to `O=[N+]([O-])C=Cc1cc([N+](=O)[O-])ccc1Cl`, the logP came to 2.23.

On to `O=C1C=CC(=NO)c2ccccc21`, for which the logP was 2.27.

With `CCOCCn1ccnc1[N+](=O)[O-]`, the log partition coefficient (logP) turned out to be 0.53.

In turn, `CN(N=Nc1ccc(C(N)=O)cc1)C(C)(C)C` registered a logP of 2.61.

Regarding `O=C(CNC(=O)c1ccccc1)Oc1cccc(Cl)c1`, the logP came out at 3.21.

Molecule `CN(C)C(=O)CCC(=O)OCC(=O)C1(O)CCC2C3CCC4=CC(=O)CCC4(C)C3C(O)CC21C` (centres undefined) showed a logP of 2.03.

As for `Cc1nnc(C)s1`, the logP is 0.03.

As for `OCC1OC(Sc2ccccc2)C(O)C(O)C1O` (centres undefined), the log partition coefficient (logP) was -0.56.

As to `COc1cccc(Cc2cnc(N)nc2N)c1`, the logP was 1.54.

As to `C#CC(C=C)(CC)OC(N)=O` (centres undefined), the logP amounted to 1.09.

With `CS(=O)(=O)c1cccc(CC(=O)O)c1`, the lipophilicity (logP) came out at 0.06.

In turn, `CCC(=O)Nc1n[nH]c(NC(=O)CC)n1` yielded a logP of 0.07.

With `O=S1(=O)NC(CCl)=Nc2cc(Cl)ccc21`, the log partition coefficient (logP) was determined as 1.68.

For `CSC(C)=NOC(=O)N(C)SN(C(=O)c1ccc(C)cc1)C(C)C`, the logP was 3.4.

`COc1cc(Cc2cnc(N)nc2N)cc(OC)c1CO` displayed a lipophilicity (logP) of 0.42.

Molecule `CCCCCCCC(=O)NN` displayed a logP of 1.

The molecule `CCN1C(=O)SC(=Cc2ccc([N+](=O)[O-])o2)C1=O` showed a logP of 2.29.

`CCCCCCCC1(CC)C(=O)NC(=O)NC1=O`: the logP stood at 2.91.

In the case of `CCCSC1OC(CO)C(O)C(O)C1O` (centres undefined), the logP is -1.18.

`COc1cc(-n2nc(C)cc2OC)ncn1` registered a logP of 1.53.

On to `CNc1cc(Cc2cnc(N)nc2N)cc(N(C)C(C)=O)c1C`, for which the logP was 0.53.

Regarding `NNC(=O)NCc1ccccc1`, the lipophilicity (logP) was -0.22.

In turn, `N#Cc1cc(OCC(=O)O)ccc1Cl` registered a logP of 1.56.

Take `O=C(Cn1ccnc1[N+](=O)[O-])N(CO)CO`: the logP was -1.59.

Turning to `FC(F)(F)COC1C(Cl)C(Cl)C(Cl)C(Cl)C1Cl` (centres undefined), the logP amounted to 4.15.

Molecule `CCCCCc1ccc(O)cc1` yielded a logP of 4.06.

Turning to `COc1cc(S(=O)(=O)CCO)cc(OC)c1OC`, the logP worked out at 0.18.

The molecule `CCOC(=O)C(=Cc1cccc(OC)c1OC)C(C)=O` came in with a logP of 2.21.

`S=C=Nc1ccc(Nc2ccccc2)cc1` yielded a logP of 4.94.

With `O=C([O-])c1ccc2ccccc2c1.[Na+]`, the logP was -1.07.

In turn, `O=C1OC(C2CCCCC2)c2ccccc21` (centres undefined) returned a lipophilicity (logP) of 3.34.

`Nc1nc(N)nc(-c2cc(F)ccc2Cl)n1`: the logP came out at 1.38.

Turning to `ClC1C=CCC(Cl)C1Cl` (centres undefined), the logP turned out to be 2.84.

`CCN(CC)c1cc(N)[n+]([O-])c(N)n1` registered a logP of 1.16.

`O=S(=O)(Nc1ccc(F)cc1)C(F)(F)F` had a logP of 3.25.

For `COP(=O)(OC)Oc1ccccc1`, the logP worked out at 1.22.

On to `CCCCCC[n+]1cc(C)cc(C)c1.[I-]`, for which the logP is -1.19.

Take `CNC(=O)c1ccc(S(N)(=O)=O)cc1`: the logP was -0.31.

`CCC12CC3CC(N)(C1)CC(CC)(C3)C2` displayed a log partition coefficient (logP) of 4.36.

Take `Cc1cccc(OC2OC(CO)C(O)C(O)C2O)c1` (centres undefined): the lipophilicity (logP) was -0.2.

As to `CCSc1c(OC)cc(Cc2cnc(N)nc2N)cc1OC`, the logP came to 1.79.

For the molecule `CO[C@@]12[C@@H]3N[C@@H]3CN1C1=C(C(=O)C(Nc3nc(C)c(C)s3)=C(C)C1=O)[C@@H]2COC(N)=O`, the logP came out at 1.29.

Molecule `CCCCCCCCCCCCCC[n+]1ccc(C)cc1C.[I-]` had a logP of 2.47.

`O=C1CN=C(c2ccccc2F)c2cc(Cl)c(Cl)cc2N1` registered a logP of 3.63.

The molecule `O=C(NC1CC1)c1cc(N2CC2)c([N+](=O)[O-])cc1[N+](=O)[O-]` yielded a logP of 0.74.

The molecule `CCCCCCCCCC[n+]1ccc(C)c(C)c1.[I-]` showed a logP of 0.66.

Consider `CC(=O)Nc1ccn(C2OC(COC(C)=O)C(OC(C)=O)C2OC(C)=O)c(=O)n1` (centres undefined), for which the logP is -0.16.

In turn, `O=C1CN=C(c2c(F)cccc2F)c2cc(Cl)ccc2N1` had a logP of 2.68.

For the molecule `CNC(=S)NCCSCc1nc[nH]c1C`, the logP turned out to be 0.5.

Take `CSC(C)=NOC(=O)N(C)SN(C)C(=O)OC1CCCCC1`: the logP was 3.6.

As for `CNP(=O)(OC)Oc1cccc(C(C)(C)C)c1` (centres undefined), the logP amounted to 2.65.

Turning to `O=C1CN=C(c2ccccc2F)c2cc(Cl)ccc2N1CC(O)CO` (centres undefined), the logP stood at 1.51.

For the molecule `S=C=NCc1cccc2ccccc12`, the logP was 4.42.

As to `NS(=O)(=O)c1cccc(OC(=O)CNC(=O)c2ccccc2)c1`, the logP came to 0.84.

On to `CN(N=O)C(=O)Oc1cccc2ccccc12`, for which the logP is 2.85.

Molecule `Cc1[nH]c(=O)n(OCCCl)c(=O)c1Br` showed a lipophilicity (logP) of 0.3.

For `O=NN1CCC(c2ccccc2)CC1`, the logP stood at 2.59.

As to `COc1ccc2c(c1)C(c1ccccc1)=NCC(=O)N2`, the logP amounted to 2.24.

Consider `CCN(C)c1nc(N(C)CC)nc(N(C)CC)n1`, for which the log partition coefficient (logP) was 3.9.

Turning to `CC(C)Sc1nnc(C(C)C)c(=O)n1N`, the logP was 2.06.

In the case of `CCCCc1ccc2nc(C(F)(F)F)[nH]c2c1`, the lipophilicity (logP) turned out to be 4.27.

For the molecule `CNC(=O)Oc1cccc(C(F)(F)F)c1`, the logP is 2.37.

With `COP(=O)(OC)Oc1cc(C)c([N+](=O)[O-])c(C)c1`, the lipophilicity (logP) turned out to be 2.57.

Turning to `CN(C)CCC=C1c2ccccc2CCc2c(Cl)cccc21`, the logP was found to be 5.55.

`COc1cc(S(=O)(=O)CC(O)c2ccccc2)cc(OC)c1OC` (centres undefined) came in with a logP of 1.65.

As to `CCOc1c(OC)cc(Cc2cnc(N)nc2N)cc1OC`, the log partition coefficient (logP) amounted to 1.34.

With `COc1cc(Cc2cnc(N)nc2N)cc(OC)n1`, the logP stood at 1.64.

With `CS(=O)(=O)c1cnc2ccccc2n1`, the log partition coefficient (logP) came out at 0.79.

`Cc1cc(C(=O)O)no1` had a logP of 0.68.

In turn, `CN(Cc1ccc([N+](=O)[O-])cc1)N=Nc1ccc(C(=O)O)cc1` displayed a logP of 4.03.

As usually defined, the logP is the decadic logarithm of the partition coefficient of the neutral form, usually between octanol and water. A low value points to lower lipophilicity.
